Measured values from patent US7956069B2, “Compounds” (AstraZeneca AB, priority 2006, dated 2011).

How the values were obtained:
[1] = target: T1, hM3 (human Muscarinic receptor subtype 3) (Homo sapiens, UniProt P20309); test: Human M3 calcium mobilization FLIPR assay; assay type: cell-based; conditions: CHO cells expressing hM3, Ca2+ release
T1 construct: expressed in transfected cells; host or cells: CHO cells (Chinese hamster ovary cells, ATCC)
Procedure: (§1) Biological Evaluation Human M1, Rat M1, Human M3 and Human M5 Calcium Mobilization FLIPR™ Assay
(§2) The compound activity in the present invention (EC50 or IC50) was measured using a 384 plate-based imaging assay that monitors drug induced intracellular Ca^2+ release in whole cells. Activation of hM1 (human Muscarinic receptor subtype 1, gene bank access NM_000738), rM1 (rat Muscarinic receptor subtype 1, gene bank access NM_080773), hM3 (human Muscarinic receptor subtype 3, gene bank access NM_000740NM_000740) and hM5 (human Muscarinic receptor subtype 5, gene bank access NM_0121258), receptors expressed in CHO cells (Chinese hamster ovary cells, ATCC) was quantified in a Molecular Devices FLIPR II™ instrument as an increase in fluorescent signal. Inhibition of hM3 and hM5 by compounds was determined by the decrease in fluorescent signal in response to 20 nM carbachol activation.
(§3) CHO cells were plated in 384-black polylysine coated plate (Costar) at 8000 cells/well/50 μl for 24 hours or 4000 cells/well for 48 hours in a humidified incubator (5% CO2 and 37° C.) in DMEM/F12 medium without selection agent. Prior to the experiment the cell culture medium was removed from the plates by inversion. A loading solution of 30 μl of Hank's balanced salt solution, 10 mM Hepes and 2.5 mM Probenicid at Ph 7.4 (Cat no. 311-520-VL, Wisent) with 2 μM calcium indicator dye (FLUO-3AM, Molecular Probes F14202) was added to each well. Plates were incubated at 37° C. for 60 minutes prior to start the experiment. The incubation was terminated by washing the cells four times in assay buffer, leaving a residual 25 μl buffer per well. Cell plates were then transferred to the FLIPR, ready for compound additions.
(§4) The day of experiment, carbachol and compounds were diluted in three-fold concentration range (10 points serial dilution) for addition by FLIPR instrument. For all calcium assays, a baseline reading was taken for 30 seconds followed by the addition of 12.5 μl (25 μl for hM1 and rM1) of compounds, resulting in a total well volume of 37.5 μl (50 μl for hM1 and rM1). Data were collected every 1.6 seconds for 300 seconds. For hM3 and hM5 an additional 12.5 μl of carbachol (20 nM final) was added at 300 seconds. After this addition of carbachol (producing a final volume of 50 μl), the FLIPR continued to collect data every 2 seconds for 240 seconds. The fluorescence emission was read using filter 1 (emission 520-545 nm) by the FLIPR on board CCD camera.
(§5) Calcium mobilization output data were calculated as the maximal relative fluorescence unit (RFU) minus the minal value for both compound and agonist reading frame (except for hM1 and rM1 using only the maximal RFU). Data were analyzed using sigmoidal fits of a non-linear curve-fitting program (XLfit version 5.0.6 from ID Business Solutions Limited, Guildford, UK). All EC50 and IC50 values are reported as arithmetic means±standard error of mean of ‘n’ independent experiments.

[2] = target: T2, hM5 (human Muscarinic receptor subtype 5) (Homo sapiens, UniProt P08912); test: Human M5 calcium mobilization FLIPR assay; assay type: cell-based; conditions: CHO cells expressing hM5, Ca2+ release
T2 construct: expressed in transfected cells; host or cells: CHO cells (Chinese hamster ovary cells, ATCC)
T2 sequence (P08912 1-532): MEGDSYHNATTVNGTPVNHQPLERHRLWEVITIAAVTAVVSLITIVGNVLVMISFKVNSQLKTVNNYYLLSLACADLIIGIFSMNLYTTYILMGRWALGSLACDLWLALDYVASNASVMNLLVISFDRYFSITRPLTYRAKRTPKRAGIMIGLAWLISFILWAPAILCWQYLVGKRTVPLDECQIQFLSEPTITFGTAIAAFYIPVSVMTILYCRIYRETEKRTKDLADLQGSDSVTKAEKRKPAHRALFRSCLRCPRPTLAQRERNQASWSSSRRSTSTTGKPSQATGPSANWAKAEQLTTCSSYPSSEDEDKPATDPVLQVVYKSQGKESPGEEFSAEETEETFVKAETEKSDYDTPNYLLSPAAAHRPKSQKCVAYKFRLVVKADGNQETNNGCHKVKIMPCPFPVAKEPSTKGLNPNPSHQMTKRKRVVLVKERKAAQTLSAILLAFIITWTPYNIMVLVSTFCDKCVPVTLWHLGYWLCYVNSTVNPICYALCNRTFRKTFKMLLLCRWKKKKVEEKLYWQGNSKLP
Procedure: as §1, §2, §3, §4, §5

T1 sequence (P20309 whole entry): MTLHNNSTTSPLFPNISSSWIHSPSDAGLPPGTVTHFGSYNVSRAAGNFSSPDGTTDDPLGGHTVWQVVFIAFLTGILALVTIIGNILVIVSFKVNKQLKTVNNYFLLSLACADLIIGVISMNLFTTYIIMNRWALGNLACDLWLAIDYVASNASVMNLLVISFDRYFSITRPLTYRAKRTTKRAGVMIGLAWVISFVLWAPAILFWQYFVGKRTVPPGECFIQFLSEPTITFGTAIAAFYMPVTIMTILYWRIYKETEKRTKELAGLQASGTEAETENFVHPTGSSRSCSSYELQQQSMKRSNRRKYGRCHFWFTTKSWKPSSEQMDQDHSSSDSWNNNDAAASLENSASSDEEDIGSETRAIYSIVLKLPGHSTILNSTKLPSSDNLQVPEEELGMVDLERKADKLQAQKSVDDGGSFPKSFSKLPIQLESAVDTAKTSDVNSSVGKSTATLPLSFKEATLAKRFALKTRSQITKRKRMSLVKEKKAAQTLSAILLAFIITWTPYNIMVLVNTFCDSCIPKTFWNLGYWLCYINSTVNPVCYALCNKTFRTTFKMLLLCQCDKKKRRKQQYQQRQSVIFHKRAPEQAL

O=C1CCCN1CCC(=O)N1CCC(N2CCC(N3C(=O)N[C@@H]4CCCC[C@H]43)CC2)CC1
EC50 [1]: 5.4 µM | EC50 [2]: 2400 nM

CCOC(=O)N1CCC(N2CCC(N3C(=O)N[C@H]4CCCC[C@@H]43)CC2)CC1
EC50 [1]: 2.5 µM | EC50 [2]: 220 nM

O=C(C1CC1)N1CCC(N2CCC(N3C(=O)N[C@@H]4CCCC[C@H]43)CC2)CC1
EC50 [1]: > 40 µM | EC50 [2]: > 40000 nM

CC(C)OC(=O)N1CCC(N2CCC(N3C(=O)N[C@@H]4CCCC[C@@H]43)CC2)CC1
EC50 [1]: > 40 µM | EC50 [2]: 72 nM

CC(C)OC(=O)N1CCC(N2CCC(N3C(=O)N[C@H]4CCCC[C@@H]43)CC2)CC1
EC50 [1]: > 40 µM | EC50 [2]: 36 nM

O=C(C1CCCC1)N1CCC(N2CCC(N3C(=O)N[C@H]4CCCC[C@@H]43)CC2)CC1
EC50 [1]: > 40 µM | EC50 [2]: > 40000 nM

CCOC(=O)N1CC[C@H](N2CCC(N3C(=O)N[C@H]4CCCC[C@@H]43)CC2)C1
EC50 [1]: > 40 µM | EC50 [2]: 3900 nM

CC(C)OC(=O)N1CCC(N2CCC(N3C(=O)C[C@H]4CCCC[C@@H]43)CC2)CC1
EC50 [1]: > 40 µM | EC50 [2]: > 40000 nM

CN1C(=O)N(C2CCN(C3CCN(C(=O)C4CC4)CC3)CC2)[C@H]2CCCC[C@@H]21
EC50 [1]: > 40 µM | EC50 [2]: > 40000 nM

O=C1CCCN1CCC(=O)N1CCC(N2CCC(N3C(=O)N[C@H]4CCCC[C@@H]43)CC2)CC1
EC50 [1]: > 40 µM | EC50 [2]: 1600 nM

COc1ccccc1C(=O)N1CCC(N2CCC(N3C(=O)N[C@@H]4CCCC[C@H]43)CC2)CC1
EC50 [1]: > 40 µM | EC50 [2]: > 40000 nM
